For one data set, the system named is BXPC-3. Description: Human cancer cell line growth inhibition, pancreas BXPC-3. Type of data set: cell-based. The procedure: (§1) Narciclasine cyclic phosphate prodrugs 3a-o were evaluated against a minipanel of human cancer cell lines and the murine P388 lymphocytic leukemia. The GI50 0.1-0.02 μg/ml strong activity range parallels that already reported for the parent, narciclasine (1). (Pettit, G. R.; Melody, N.; Herald, D. L. J. Org. Chem. 2001, 66, 2583-2587.)

For another data set, the system named is SF 268. As to the kind of experiment: Human cancer cell line growth inhibition, CNS SF 268. The class given is cell-based. The procedure: as §1
The test system of the next data set is KM20L2. As to the kind of experiment: Human cancer cell line growth inhibition, colon KM20L2. The class given is cell-based. The procedure: as §1
In a further data set the test system is MCF-7. Description: Human cancer cell line growth inhibition, breast MCF-7. The class given is cell-based. Here is the method: as §1
The test system of another data set is DU-145. Description: Human cancer cell line growth inhibition, prostate DU-145. Type of data set: cell-based. The procedure:
as §1

The test system of the next data set is NCI-H460. Description: Human cancer cell line growth inhibition, lung NCI-H460. The class given is cell-based. The procedure:
as §1

In a further data set the test system is M5076 sarcoma. As to conditions: U.S. National Cancer Institute research; cited from earlier work.
Data set [1] has as its system P388 lymphocytic leukemia. The note with it: U.S. National Cancer Institute research; cited from earlier work.
Another data set can be described thus: Solubility in water. The note with it: solvent not stated.
The subject of data set [2] is Erlich asciter cancer cells. The note with it: cited from earlier work.

In the case of `O=C1NC2C(=CC(O)C3OP(=O)([O-])OC23)c2cc3c(c(O)c21)OCO3.O=C1NC2C(=CC(O)C3OP(=O)([O-])OC23)c2cc3c(c(O)c21)OCO3.[Mn+2]` (stereo not shown) [Compound 3j, Manganese Narcistatin], the “GI50 Pancreas-a BXPC-3” value in the data set with BXPC-3 amounted to 0.049 µg/mL. For the same compound, the “GI50 CNS SF 268” value in the data set with SF 268 amounted to 0.04 µg/mL. Also, the “GI50 Colon KM20L2” value in the data set on KM20L2 turned out to be 0.13 µg/mL. In the data set on MCF-7, the “GI50 Breast MCF-7” value came out at 0.07 µg/mL. Besides, in the data set on DU-145, the “GI50 Prostate DU-145” value was 0.034 µg/mL. In the data set with NCI-H460, the “GI50 Lung-NSC NCI-H460” value turned out to be 0.15 µg/mL.

Turning to Potassium Narcistatin [Compound 3e], the “GI50 Pancreas-a BXPC-3” value in the data set on BXPC-3 came out at 0.36 µg/mL. Besides, in the data set on SF 268, the “GI50 CNS SF 268” value was determined as 0.19 µg/mL. Also, the “GI50 Colon KM20L2” value in the data set on KM20L2 is 0.56 µg/mL. In addition, the “GI50 Breast MCF-7” value with MCF-7 amounted to 0.4 µg/mL. In addition, the “GI50 Prostate DU-145” value in the data set with DU-145 is 0.26 µg/mL. In addition, in the data set on NCI-H460, the “GI50 Lung-NSC NCI-H460” value is 0.67 µg/mL.

As to Imidazolium Narcistatin [Compound 3m], in the data set with BXPC-3, the “GI50 Pancreas-a BXPC-3” value was determined as 0.45 µg/mL. For the same compound, the “GI50 CNS SF 268” value with SF 268 worked out at 0.38 µg/mL. In addition, the “GI50 Colon KM20L2” value in the data set on KM20L2 is more than 1 µg/mL. In the data set with MCF-7, the “GI50 Breast MCF-7” value worked out at 0.9 µg/mL. Also, the “GI50 Prostate DU-145” value in the data set with DU-145 worked out at 0.44 µg/mL. The “GI50 Lung-NSC NCI-H460” value in the data set with NCI-H460 was more than 1 µg/mL.

For the compound Zinc Narcistatin [Compound 3i], the “GI50 Pancreas-a BXPC-3” value in the data set on BXPC-3 was determined as 0.069 µg/mL. The “GI50 CNS SF 268” value with SF 268 worked out at 0.053 µg/mL. The “GI50 Colon KM20L2” value in the data set with KM20L2 amounted to 0.16 µg/mL. The “GI50 Breast MCF-7” value in the data set on MCF-7 was determined as 0.14 µg/mL. Also, the “GI50 Prostate DU-145” value with DU-145 amounted to 0.016 µg/mL. In the data set with NCI-H460, the “GI50 Lung-NSC NCI-H460” value was determined as 0.21 µg/mL.

For `O=C1N[C@@H]2C(=C[C@H](O)[C@@H](O)[C@H]2O)c2cc3c(c(O)c21)OCO3` [narciclasine (1), narciclasine], the “activity against in vivo growth of M5076 sarcoma” value in the data set on M5076 sarcoma is “active”. Further, in data set [1], the “activity against in vivo growth of P388 lymphocytic leukemia” value is reported as “active”. For the same compound, the “solubility” value in the data set “Solubility in water” was “sparingly soluble”. Besides, the “inhibition of protein synthesis” value in data set [2] is “inhibit protein synthesis”.

For Piperazinium Narcistatin [Compound 3o], the “GI50 Pancreas-a BXPC-3” value in the data set on BXPC-3 was determined as 0.1 µg/mL. In addition, the “GI50 CNS SF 268” value in the data set with SF 268 came to 0.099 µg/mL. Also, the “GI50 Colon KM20L2” value with KM20L2 was 0.22 µg/mL. Besides, the “GI50 Breast MCF-7” value with MCF-7 is 0.17 µg/mL. Moreover, the “GI50 Prostate DU-145” value in the data set on DU-145 is 0.032 µg/mL. The “GI50 Lung-NSC NCI-H460” value in the data set on NCI-H460 was found to be 0.24 µg/mL.

Turning to `C1COCCN1.O=C1N[C@@H]2C(=C[C@H](O)[C@H]3OP(=O)(O)O[C@H]32)c2cc3c(c(O)c21)OCO3` [Compound 3n, Morpholinium Narcistatin], in the data set with BXPC-3, the “GI50 Pancreas-a BXPC-3” value turned out to be 0.25 µg/mL. In addition, in the data set on SF 268, the “GI50 CNS SF 268” value stood at 0.24 µg/mL. For the same compound, the “GI50 Colon KM20L2” value in the data set with KM20L2 came to 0.54 µg/mL. Besides, in the data set with MCF-7, the “GI50 Breast MCF-7” value came to 0.48 µg/mL. Besides, the “GI50 Prostate DU-145” value with DU-145 is 0.14 µg/mL. Also, the “GI50 Lung-NSC NCI-H460” value in the data set on NCI-H460 is more than 1 µg/mL.

As for Narcistatin [Compound 3b], the “GI50 Pancreas-a BXPC-3” value with BXPC-3 came out at 0.33 µg/mL. Besides, the “GI50 CNS SF 268” value with SF 268 was 0.22 µg/mL. In addition, the “GI50 Colon KM20L2” value in the data set on KM20L2 was 0.53 µg/mL. Also, the “GI50 Breast MCF-7” value in the data set on MCF-7 was found to be 0.35 µg/mL. Also, in the data set on DU-145, the “GI50 Prostate DU-145” value was 0.16 µg/mL. In addition, in the data set with NCI-H460, the “GI50 Lung-NSC NCI-H460” value was found to be 0.47 µg/mL.

Regarding Calcium Narcistatin [Compound 3h], the “GI50 Pancreas-a BXPC-3” value in the data set on BXPC-3 was 0.045 µg/mL. For the same compound, the “GI50 CNS SF 268” value with SF 268 amounted to 0.031 µg/mL. Further, in the data set on KM20L2, the “GI50 Colon KM20L2” value was 0.059 µg/mL. Also, the “GI50 Breast MCF-7” value with MCF-7 was determined as 0.059 µg/mL. Moreover, the “GI50 Prostate DU-145” value in the data set with DU-145 was determined as 0.0093 µg/mL. Further, the “GI50 Lung-NSC NCI-H460” value with NCI-H460 came out at 0.12 µg/mL.

Take Sodium Narcistatin [Compound 3d]: the “GI50 Pancreas-a BXPC-3” value in the data set on BXPC-3 amounted to 0.32 µg/mL. Also, the “GI50 CNS SF 268” value with SF 268 turned out to be 0.23 µg/mL. For the same compound, the “GI50 Colon KM20L2” value in the data set on KM20L2 was 0.45 µg/mL. Further, the “GI50 Breast MCF-7” value in the data set with MCF-7 amounted to 0.56 µg/mL. In addition, in the data set with DU-145, the “GI50 Prostate DU-145” value amounted to 0.12 µg/mL. Also, in the data set on NCI-H460, the “GI50 Lung-NSC NCI-H460” value is more than 1 µg/mL.

`C=C[C@@H]1CN2CC[C@@H]1C[C@H]2[C@@H](O)c1ccnc2ccc(OC)cc12.O=C1N[C@@H]2C(=C[C@H](O)[C@H]3OP(=O)(O)O[C@H]32)c2cc3c(c(O)c21)OCO3` [Compound 3k, Quinidinium Narcistatin]: in the data set on BXPC-3, the “GI50 Pancreas-a BXPC-3” value was 0.31 µg/mL. In addition, in the data set with SF 268, the “GI50 CNS SF 268” value turned out to be 0.25 µg/mL. The “GI50 Colon KM20L2” value in the data set with KM20L2 stood at 0.58 µg/mL. In addition, the “GI50 Breast MCF-7” value in the data set with MCF-7 was 0.5 µg/mL. In the data set on DU-145, the “GI50 Prostate DU-145” value stood at 0.22 µg/mL. Further, in the data set on NCI-H460, the “GI50 Lung-NSC NCI-H460” value is 0.77 µg/mL.

For Cesium Narcistatin [Compound 3f], the “GI50 Pancreas-a BXPC-3” value in the data set on BXPC-3 was found to be 0.41 µg/mL. In addition, the “GI50 CNS SF 268” value in the data set on SF 268 turned out to be 0.33 µg/mL. Further, in the data set with KM20L2, the “GI50 Colon KM20L2” value was 0.66 µg/mL. Also, the “GI50 Breast MCF-7” value with MCF-7 is 0.62 µg/mL. In addition, the “GI50 Prostate DU-145” value with DU-145 came out at 0.13 µg/mL. Moreover, the “GI50 Lung-NSC NCI-H460” value with NCI-H460 is more than 1 µg/mL.

On to `C=C[C@@H]1CN2CC[C@@H]1C[C@@H]2[C@H](O)c1ccnc2ccc(OC)cc12.O=C1N[C@@H]2C(=C[C@H](O)[C@H]3OP(=O)(O)O[C@H]32)c2cc3c(c(O)c21)OCO3` [Compound 3l, Quininium Narcistatin], for which, in the data set on BXPC-3, the “GI50 Pancreas-a BXPC-3” value stood at 0.051 µg/mL. Also, the “GI50 CNS SF 268” value in the data set on SF 268 came out at 0.045 µg/mL. In addition, in the data set on KM20L2, the “GI50 Colon KM20L2” value came to 0.12 µg/mL. Further, the “GI50 Breast MCF-7” value with MCF-7 is 0.12 µg/mL. Moreover, in the data set on DU-145, the “GI50 Prostate DU-145” value was 0.013 µg/mL. Further, the “GI50 Lung-NSC NCI-H460” value with NCI-H460 turned out to be 0.17 µg/mL.

In the case of `O=C1N[C@@H]2C(=C[C@H](O)[C@H]3OP(=O)(O)O[C@H]32)c2cc3c(c(O)c21)OCO3.c1ccncc1` [Compound 3a, Pyridinium Narcistatin], the “GI50 Pancreas-a BXPC-3” value with BXPC-3 was determined as 0.22 µg/mL. Moreover, the “GI50 CNS SF 268” value in the data set on SF 268 was determined as 0.15 µg/mL. Also, in the data set on KM20L2, the “GI50 Colon KM20L2” value was found to be 0.34 µg/mL. Further, the “GI50 Breast MCF-7” value in the data set on MCF-7 was 0.27 µg/mL. Besides, the “GI50 Prostate DU-145” value in the data set with DU-145 came to 0.17 µg/mL. Moreover, the “GI50 Lung-NSC NCI-H460” value in the data set on NCI-H460 was 0.27 µg/mL.

Turning to Lithium Narcistatin [Compound 3c], the “GI50 Pancreas-a BXPC-3” value in the data set with BXPC-3 came out at 0.25 µg/mL. For the same compound, the “GI50 CNS SF 268” value in the data set with SF 268 was found to be 0.17 µg/mL. Further, the “GI50 Colon KM20L2” value with KM20L2 came to 0.26 µg/mL. Further, the “GI50 Breast MCF-7” value with MCF-7 amounted to 0.31 µg/mL. In addition, the “GI50 Prostate DU-145” value in the data set on DU-145 worked out at 0.13 µg/mL. The “GI50 Lung-NSC NCI-H460” value in the data set on NCI-H460 turned out to be 0.3 µg/mL.

In the case of Magnesium Narcistatin [Compound 3g], the “GI50 Pancreas-a BXPC-3” value in the data set with BXPC-3 is 0.19 µg/mL. In addition, the “GI50 CNS SF 268” value in the data set on SF 268 stood at 0.14 µg/mL. Further, in the data set with KM20L2, the “GI50 Colon KM20L2” value is 0.31 µg/mL. The “GI50 Breast MCF-7” value with MCF-7 came out at 0.25 µg/mL. The “GI50 Prostate DU-145” value with DU-145 stood at 0.1 µg/mL. Further, in the data set with NCI-H460, the “GI50 Lung-NSC NCI-H460” value is 0.29 µg/mL.

These data come from patent publication US7994320B2, “Narcistatin prodrugs” (priority 2002, dated 2011).
